Here are results for five molecules from patent publication US5225411A, “Disubstituted polymethyleneimines” (priority 1990, dated 1993).

Several values for one entry are separate records, joined by “and”; a condition that tells them apart may be missing. Identical values can stand only once. Like-named read-outs stand apart in the source and are kept apart here. Some results are limits rather than exact numbers.

Data set [1] deals with murine leukaemia P 388/ADR 10. In words: Evaluation of the increase in cytotoxicity of adriamycin on the line P 388/ADR-10 in vitro (reversion factor). The class given is cell-based. The conditions noted are these: P 388/ADR 10, resistance induced by adriamycin.
Data set [2] has as its system murine leukaemia P388/ADR.
Excerpt: D) In Vivo Reversion of the Acquired Resistance to Medicaments
10^6 cells are implanted by the intraperitoneal route into female B6 D2 F1 mice on day 0 and treatment commences the following day in accordance with the administration schemes indicated.
The parameter measured is the survival time, allowing the calculation of T/C: [formula]
The variation in weight is calculaed; it provides information on the toxicity of the treatment. The control groups comprise from 15 to 27 animals and the treated groups from 5 to 10 animals.
Six independent experiments were carried out. The assays were performed over 4 days in accordance with the scheme D1-4 the tumour cells being implanted on DO and the reversing agent and the cytotoxic agnet being administered on D1, D2, D3, and D4.
Data set [3] has as its system Chinese Hamster Pulmonary Line DC-3F/AD. In words: Increase in the cytotoxicity of actinomycin D on the Chinese hamster pulmonary line DC-3F/AD.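 Note: DC-3F/AD is an extremely resistant cell line whose resistance factor exceeds 10,000.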 Conditions: 4 days. The class given is cell-based.
Excerpt: The cytotoxic agent used was actinomycin D.
Line DC-3F/AD is an extremely resistant line. Its resistance factor is higher than 10,000.
Data set [4] relates to murine leukaemia P 388/ADR 10. Kind of data set: Evaluation of the increase in cytotoxicity of adriamycin on the line P 388/ADR-10 in vitro (reversion factor). Conditions: for Reversion Factor (RF): adriamycin, P 388/ADR-10, 48 h, TOX = toxic. The class given is cell-based. How it is done:
In this study, the cytotoxicity of adriamycin was measured in the absence and in the presence of the reversing compound.
The compounds tested for their capacity to reverse MDR are added at the same time as the cytotoxic agent. The cells are then incubated for 48 hours.

Another data set concerns line DC-3F/AD. In words: Flow cytometry, increase in fluorescence of ADR on the line DC-3F/AD. Conditions: ADR 50 μM, 5 h. It is filed as cell-based, Chinese Hamster. How it is done: (§1) By measuring that fluorescence it is possible to obtain a relative measurement of the intracellular concentration of ADR.
(§2) […] After 5 hours' incubation, the intracellular uptake of adriamycin was evaluated by FCM.
(§3) The analysis of each of the samples was carried out on a total of 10,000 cells at a speed of 1000 cells/sec.
(§4) The results were presented in the form of linear histograms of the intracellular ADR fluorescence.
(§5) Expression of the Results
(§6) For each of the histograms, the channel mean fluorescence was determined by the apparatus information system. For all experiments:
(§7) A negative control (cells without ADR) fixed the autofluorescence threshold.
(§8) A positive control (cells with ADR) determined the MEAN value=MN1.
(§9) The "test" tubes (cells with ADR and with compound) were used to determine, for each of the compounds and at each of the concentrations, the MEAN values=MN2.
(§10) The results are expressed in the form of variations from the mean fluorescence obtained for each of the "test" tubes (MN2) in relation to the mean fluorescence obtained with the […] (MNl) : VAR-MEAN=MN2 -MN1. The parameter expressed is thus the increase in the fluorescence of adriamycin in the presence of the tested compounds.
In general terms: A flow cytometer gives signals particle by particle.

The test system of a further data set is line P 388/ADR 10. In words: Flow cytometry, increase in fluorescence of ADR on the line P 388/ADR 10. It is filed as cell-based, murine. The conditions noted are these: ADR 50 μM, 5 h. How it is done: as §1, §2, §3, §4, §5, §6, §7, §8, §9, §10
The conditions of data set [5]: in vivo; cited from earlier work.
Where [6] appears, read: ADR 2 mg/kg alone, i.p., D1-4, n=2.
Where [7] appears, read: ADR 4 mg/kg alone, i.p., D1-4, n=6.
Setting [8] is: Example 1 50 mg/kg + ADR 2 mg/kg, i.p., D1-4, n=2.
[9] abbreviates: Example 1 50 mg/kg + ADR 4 mg/kg, i.p., D1-4, n=2.
[10] abbreviates: Example 1 50 mg/kg alone, i.p., D1-4, n=2.
[11] abbreviates: Example 1 100 mg/kg + ADR 2 mg/kg, i.p., D1-4, n=2.
Setting [12] is: Example 1 100 mg/kg + ADR 4 mg/kg, i.p., D1-4, n=6.
Where [13] appears, read: Example 1 100 mg/kg alone, i.p., D1-4, n=6.
Setting [14] is: Example 1 200 mg/kg + ADR 2 mg/kg, i.p., D1-4, n=4.
Setting [15] is: Example 1 200 mg/kg alone, i.p., D1-4, n=4.

In general, T/C refers to the result in the treated group divided by that in the control group, in per cent. Regarding `COc1cccc2c1C(=O)c1c(O)c3c(c(O)c1C2=O)C[C@@](O)(C(=O)CO)C[C@@H]3O[C@H]1C[C@H](N)[C@H](O)[C@H](C)O1` [ADR, adriamycin, reference compound], the “factor of resistance in relation to the sensitive line” value in data set [1] amounted to 260. Besides, in data set [2] (setting [6]), the “T/C, extreme values” is 116.7-120%; the “T/C, mean ± s.e.m.” value was 118.3%; the “T/C, median” value came out at 118.3%. In data set [2] (setting [7]), the “T/C, extreme values” is recorded as 105-130%; the “T/C, mean ± s.e.m.” value is 115.1 ± 3.9%; the “T/C, median” value came out at 112.5%. Moreover, the “antitumour activity” value in data set [2] (ADR alone, P388/ADR) was “not exhibiting any antitumour activity”. The same molecule displayed a T/C in data set [2] (ADR alone, i.p.) of under 120%.

As for `C=CCNc1nc(NCC=C)nc(N2CCC(NCC(c3ccc(F)cc3)c3ccc(F)cc3)CC2)n1` [Example 1, 1-[4,6-bis(allylamino)-2-s-triazinyl]-4-[2,2-bis(p-fluorophenyl)ethylamino]piperidine], the “Reversion Factor (RF)” value in data set [3] (compound 2.5 μM) is given as 171; in data set [3] (compound 5 μM), 905; in data set [3] (compound 10 μM) it was 2575; in data set [3] (compound 20 μM) it was “TOX”; in data set [4] (compound 2.5 μM), 110.8; in data set [4] (compound 5 μM), 244.4. In data set [4] (compound 10 μM), the “Reversion Factor (RF)” value was determined as 170.7. In addition, the “T/C, extreme values” in data set [2] (setting [8]) was 120-141.7%; in data set [2] (setting [9]), 116.7-140%; in data set [2] (setting [10]), 90-108.3%; in data set [2] (setting [11]) it was 116.7-140%; in data set [2] (setting [12]), 120-150%; in data set [2] (setting [13]), 85-100%. Also, the “T/C, extreme values” in data set [2] (setting [14]) is recorded as 140-155.6%; in data set [2] (setting [15]), 80-88.9%. Further, the “T/C, mean ± s.e.m.” value is listed as 130.9% in data set [2] (setting [8]); 128.4% in data set [2] (setting [9]); 99.2% in data set [2] (setting [10]); 128.4% in data set [2] (setting [11]); 134.2 ± 4.4% in data set [2] (setting [12]); 91.7 ± 2.8% in data set [2] (setting [13]). For the same molecule, the “T/C, mean ± s.e.m.” value in data set [2] (setting [14]) is 148.9% and 148.9 ± 3.2%; in data set [2] (setting [15]), 83.5 ± 2.2%. The “T/C, median” value in data set [2] (setting [8]) was determined as 130.9%; in data set [2] (setting [9]), 128.4%; in data set [2] (setting [10]), 99.2%; in data set [2] (setting [11]) it was 128.4%; in data set [2] (setting [12]), 134.2%; in data set [2] (setting [13]) it was 90%. The “T/C, median” value in data set [2] (setting [14]) came to 150%; in data set [2] (setting [15]) it was 82.5%. Besides, in data set [2] (Example 1 200 mg/kg + ADR 2 mg/kg, i.p.), the “increase in activity as a result of the compound of Example 1” value worked out at 30.6%. For the same molecule, the “activity” value was “good activity” in data set [2] (Example 1 200 mg/kg + ADR 2 mg/kg, T/C ≥ 135% good activity); “modest activity” in data set [2] (Example 1 at 50 and 100 mg/kg (Table V: with ADR), T/C ≥ 120% moderate activity). Besides, in data set [2] (Example 1 alone, 200 mg/kg, i.p., T/C ≤ 85% toxic), the “toxicity” value is reported as “only moderately toxic”. The “antitumour activity” value in data set [2] (Example 1 alone, 50 to 200 mg/kg, i.p.) is “does not possess any antitumour activity”. For the same molecule, the “Increase in fluorescence of ADR (VAR-MEAN = MN2 - MN1)” value (shortened to “Increase in fluorescence of ADR”) turned out to be 18.27 in the data set on line DC-3F/AD (compound 2 μM); 26.13 in the data set with line DC-3F/AD (compound 5 μM); 35.57 in the data set with line DC-3F/AD (compound 10 μM); 43.63 in the data set on line DC-3F/AD (compound 20 μM); 53.1 in the data set on line P 388/ADR 10 (compound 2 μM); 74.1 in the data set with line P 388/ADR 10 (compound 5 μM). Besides, the “Increase in fluorescence of ADR” value is on record as 85.49 in the data set with line P 388/ADR 10 (compound 10 μM) and 78.5 in the data set on line P 388/ADR 10 (compound 20 μM).

For `C=CCNc1cc(N2CCC(NCCC(c3ccccc3)c3ccccc3)CC2)nc(NCC=C)n1` [Example 9, 1-(bis-2,4-allylamino-6-pyrimidinyl)-4-(3,3-diphenylpropylamino)piperidine], the “Reversion Factor (RF)” value in data set [3] (compound 2.5 μM) is listed as 94; in data set [3] (compound 5 μM), 472; in data set [3] (compound 10 μM) it was “TOX”; in data set [4] (compound 2.5 μM), 80.4; in data set [4] (compound 5 μM) it was “TOX”; in data set [4] (compound 10 μM) it was “TOX”. The “Increase in fluorescence of ADR” value was found to be 7.2 in the data set with line DC-3F/AD (compound 2 μM); 15.1 in the data set with line DC-3F/AD (compound 5 μM); 16.3 in the data set with line DC-3F/AD (compound 10 μM); 26.2 in the data set with line DC-3F/AD (compound 20 μM); 39.2 with line P 388/ADR 10 (compound 2 μM); 55.8 in the data set with line P 388/ADR 10 (compound 5 μM). Further, the “Increase in fluorescence of ADR” value with line P 388/ADR 10 (compound 10 μM) is on record as 65.8; in the data set on line P 388/ADR 10 (compound 20 μM), “TOX”.

As to `C=CCNc1nc(NCC=C)nc(N2CCC(NCC(c3cc(OC)cc(OC)c3)c3ccccc3C)CC2)n1` (stereo not shown) [Example 10, 1-[4,6-bis(allylamino)-2-s-triazinyl]-4-[2-(3,5-dimethoxyphenyl)-2-(2-methylphenyl)ethylamino]piperidine], the “Reversion Factor (RF)” value in data set [3] (compound 2.5 μM) was 259; in data set [3] (compound 5 μM), 1347; in data set [3] (compound 10 μM), “TOX”; in data set [4] (compound 2.5 μM), 125.1; in data set [4] (compound 5 μM) it was 75.3; in data set [4] (compound 10 μM) it was “TOX”. Also, the “Increase in fluorescence of ADR” value in the data set on line DC-3F/AD (compound 2 μM) is listed as 14.8; in the data set with line DC-3F/AD (compound 5 μM) it was 24.7; in the data set with line DC-3F/AD (compound 10 μM), 26.5; with line DC-3F/AD (compound 20 μM) it was 28.2; with line P 388/ADR 10 (compound 2 μM) it was 52.0; with line P 388/ADR 10 (compound 5 μM), 75.3. Also, the “Increase in fluorescence of ADR” value in the data set with line P 388/ADR 10 (compound 10 μM) was 84.0; in the data set on line P 388/ADR 10 (compound 20 μM), 78.0.

On to `COC(=O)[C@H]1[C@H]2C[C@@H]3c4[nH]c5cc(OC)ccc5c4CCN3C[C@H]2C[C@@H](OC(=O)c2cc(OC)c(OC)c(OC)c2)[C@@H]1OC` [RESERPINE], for which the “Reversion Factor (RF)” value in data set [3] (compound 2.5 μM) is reported as 258; in data set [3] (compound 5 μM), 1085; in data set [3] (compound 10 μM), 1649; in data set [3] (compound 20 μM), 2024; in data set [4] (compound 5 μM), 215.5; in data set [4] (compound 10 μM), 189. Moreover, in data set [4] (P 388/ADR-10, adriamycin), the “activity in reversing resistance in vitro” value is given as “very good activity in vitro”. For the same molecule, the “toxicity” value in data set [5] was “high degree of toxicity”. Also, the “Increase in fluorescence of ADR” value in the data set with line DC-3F/AD (compound 2 μM) turned out to be 26.18; in the data set with line DC-3F/AD (compound 5 μM) it was 29.43; in the data set on line DC-3F/AD (compound 10 μM), 31.73; in the data set on line DC-3F/AD (compound 20 μM) it was 29.95; in the data set on line P 388/ADR 10 (compound 2 μM), 73.46; in the data set on line P 388/ADR 10 (compound 5 μM), 80.48. The “Increase in fluorescence of ADR” value in the data set on line P 388/ADR 10 (compound 10 μM) was found to be 91.90; with line P 388/ADR 10 (compound 20 μM), 85.39.
